Test results published in patent publication US8252935B2, “Piperidinyl and piperazinyl modulators of γ-secretase” (Janssen Pharmaceutica N.V., priority 2007, dated 2012).

Molecular target: γ-secretase (Homo sapiens, UniProt P49768)
Test: Screening for γ-secretase-modulating activity in SKNBE2 cells carrying APP 695 wild type (assay of Citron et al 1997)
Type: cell-based
Settings: SKNBE2, @ 1 uM; SKNBE2 cells carrying the APP 695 wild type
Description: Screening was carried out using SKNBE2 cells carrying the APP 695—wild type, grown in DMEM/NUT-mix F12 (HAM) provided by Gibco (cat no. 31330-38) containing 5% Serum/Fe supplemented with 1% non-essential amino acids. Cells were grown to near confluency. The screening was performed using the assay as described in Citron et al (1997) Nature Medicine 3: 67.

inhibition at 1 µM [%] | SMILES
8 | CC(C)C[C@@H](C(=O)O)c1cc(-c2ccc(C(F)(F)F)cc2)cc([C@@H]2CC[C@H](C(F)(F)F)NC2)c1 (relative stereo) [Example 35, 4-Methyl-2-[4′-trifluoromethyl-5-(6-trifluoromethyl-piperidin-3-yl)-biphenyl-3-yl]-pentanoic acid]
40 | CC(C)C[C@H](C(=O)O)c1cc(-c2ccc(C(F)(F)F)cc2)cc([C@H]2CC[C@@H](C(F)(F)F)NC2)c1 (single isomer, unassigned) [Example 36, 4-Methyl-2-[4′-trifluoromethyl-5-(6-trifluoromethyl-piperidin-3-yl)-biphenyl-3-yl]-pentanoic acid]
75 | CC(C)CCC(c1ccc(C(F)(F)F)cc1)N1CCCC(c2cc(-c3ccc(C(F)(F)F)cc3)cc(C(CC(C)C)C(=O)O)c2)C1 (single isomer, unassigned) [Example 56, (R*) 4-Methyl-2-(5-{1-[4-methyl-1-(4-trifluoromethyl-phenyl)-pentyl]-piperidin-3-yl}-4′-trifluoromethyl-biphenyl-3-yl)-pentanoic acid]
44 | CC(C)CC(C(=O)O)c1cc(-c2ccc(C(F)(F)F)cc2)cc(C2CCCN(C(C)c3ccc(C(F)(F)F)cc3)C2)c1 (single isomer, unassigned) [Example 63, (S*)-4-Methyl-2-(4′-trifluoromethyl-5-{1-[1-(4-trifluoromethyl-phenyl)-ethyl]-piperidin-3-yl}-biphenyl-3-yl)-pentanoic acid]
23 | CC(C)CC(C(=O)O)c1cc(-c2ccc(C(F)(F)F)cc2)cc(C2CCC(C(F)(F)F)N(Cc3ccncc3)C2)c1 (stereo not drawn) [Example 25, 4-Methyl-2-[5-(1-pyridin-4-ylmethyl-6-trifluoromethyl-piperidin-3-yl)-4′-trifluoromethyl-biphenyl-3-yl]-pentanoic acid]
68 | CC(C)CC(C(=O)O)c1cc(-c2ccc(C(F)(F)F)cc2)cc(C2CCC(C(F)(F)F)N(Cc3cccc(C(F)(F)F)c3)C2)c1 (stereo not drawn) [Example 28, 4-Methyl-2-{4′-trifluoromethyl-5-[6-trifluoromethyl-1-(3-trifluoromethyl-benzyl)-piperidin-3-yl]-biphenyl-3-yl}-pentanoic acid]
22 | CCC(CC)N1CCCC(c2cc(-c3ccc(C(F)(F)F)cc3)cc(C(CC(C)C)C(=O)O)c2)C1 (stereo not drawn) [Example 33, 2-{5-[1-(1-Ethyl-propyl)-piperidin-3-yl]-4′-trifluoromethyl-biphenyl-3-yl}-4-methyl-pentanoic acid]
70 | CC(C)CC(C(=O)O)c1cc(-c2ccc(C(F)(F)F)cc2)cc(C2CCCN(S(=O)(=O)c3cccc(C(F)(F)F)c3)C2)c1 (stereo not drawn) [Example 40, 4-Methyl-2-{4′-trifluoromethyl-5-[1-(3-trifluoromethyl-benzenesulfonyl)-piperidin-3-yl]-biphenyl-3-yl}-pentanoic acid]
70 | CC(C)CC(C(=O)O)c1cc(-c2ccc(C(F)(F)F)cc2)cc(C2CCCN(S(=O)(=O)c3cccc4cnccc34)C2)c1 (stereo not drawn) [Example 41, 2-{5-[1-(Isoquinoline-5-sulfonyl)-piperidin-3-yl]-4′-trifluoromethyl-biphenyl-3-yl}-4-methyl-pentanoic acid]
63 | CC(C)CC(C(=O)O)c1cc(-c2ccc(C(F)(F)F)cc2)cc(C2CCCN(S(=O)(=O)c3ccccc3C(F)(F)F)C2)c1 (stereo not drawn) [Example 42, 4-Methyl-2-{4′-trifluoromethyl-5-[1-(2-trifluoromethyl-benzenesulfonyl)-piperidin-3-yl]-biphenyl-3-yl}-pentanoic acid]
55 | CC(C)CC(C(=O)O)c1cc(-c2ccc(C(F)(F)F)cc2)cc(C2CCCN(C(=O)c3ccc(C(F)(F)F)cc3)C2)c1 (stereo not drawn) [Example 43, 4-Methyl-2-{4′-trifluoromethyl-5-[1-(4-trifluoromethyl-benzoyl)-piperidin-3-yl]-biphenyl-3-yl}-pentanoic acid]
46 | CC(C)CC(C(=O)O)c1cc(-c2ccc(C(F)(F)F)cc2)cc(C2CCCN(Cc3ccc(-n4cccc4)cc3)C2)c1 (stereo not drawn) [Example 44, 4-Methyl-2-{5-[1-(4-pyrrol-1-yl-benzyl)-piperidin-3-yl]-4′-trifluoromethyl-biphenyl-3-yl}-pentanoic acid]
57 | CC(C)CC(C(=O)O)c1cc(-c2ccc(C(F)(F)F)cc2)cc(C2CCCN(Cc3ccc4ccccc4c3)C2)c1 (stereo not drawn) [Example 46, 4-Methyl-2-[5-(1-naphthalen-2-ylmethyl-piperidin-3-yl)-4′-trifluoromethyl-biphenyl-3-yl]-pentanoic acid]
61 | CC(C)CC(C(=O)O)c1cc(-c2ccc(C(F)(F)F)cc2)cc(C2CCCN(Cc3ccc(OC(F)(F)F)cc3)C2)c1 (stereo not drawn) [Example 47, 4-Methyl-2-{5-[1-(4-trifluoromethoxy-benzyl)-piperidin-3-yl]-4′-trifluoromethyl-biphenyl-3-yl}-pentanoic acid]
59 | CC(C)CC(C(=O)O)c1cc(-c2ccc(C(F)(F)F)cc2)cc(C2CCCN(Cc3ccc(Oc4ccc(F)cc4)cc3)C2)c1 (stereo not drawn) [Example 48, 2-(5-{1-[4-(4-Fluoro-phenoxy)-benzyl]-piperidin-3-yl}-4′-trifluoromethyl-biphenyl-3-yl)-4-methyl-pentanoic acid]
54 | CC(C)CC(C(=O)O)c1cc(-c2ccc(C(F)(F)F)cc2)cc(C2CCCN(Cc3ccc4nnsc4c3)C2)c1 (stereo not drawn) [Example 49, 2-[5-(1-Benzo[1,2,3]thiadiazol-6-ylmethyl-piperidin-3-yl)-4′-trifluoromethyl-biphenyl-3-yl]-4-methyl-pentanoic acid]
17 | CC(C)CC(C(=O)O)c1cc(-c2ccc(C(F)(F)F)cc2)cc(C2CCCN(Cc3ccc4nnn(C)c4c3)C2)c1 (stereo not drawn) [Example 50, 4-Methyl-2-{5-[1-(3-methyl-3H-benzotriazol-5-ylmethyl)-piperidin-3-yl]-4′-trifluoromethyl-biphenyl-3-yl}-pentanoic acid]
48 | COc1ccc(CN2CCCC(c3cc(-c4ccc(C(F)(F)F)cc4)cc(C(CC(C)C)C(=O)O)c3)C2)cc1C(F)(F)F (stereo not drawn) [Example 51, 2-{5-[1-(4-Methoxy-3-trifluoromethyl-benzyl)-piperidin-3-yl]-4′-trifluoromethyl-biphenyl-3-yl}-4-methyl-pentanoic acid]

Second part, the compound before the results:

SMILES | inhibition at 1 µM [%]
CCC1CCCCN1c1cc(-c2ccc(C(F)(F)F)cc2)cc(C(CC(C)C)C(=O)O)c1 (stereo not drawn) [Example 2, 2-[5-(2-Ethyl-piperidin-1-yl)-4′-trifluoromethyl-biphenyl-3-yl]-4-methyl-pentanoic acid] | 45
CC(C)CC(C(=O)O)c1cc(-c2ccc(C(F)(F)F)cc2)cc(N2CCCCC2C)c1 (stereo not drawn) [Example 3, 4-Methyl-2-[5-(2-methyl-piperidin-1-yl)-4′-trifluoromethyl-biphenyl-3-yl]-pentanoic acid] | 23
CC(C)CC(C(=O)O)c1cc(-c2ccc(C(F)(F)F)cc2)cc(N2CCC(F)(F)CC2)c1 (stereo not drawn) [Example 5, 2-(5-(4,4-difluoropiperidin-1-yl)-4′-(trifluoromethyl)biphenyl-3-yl)-4-methylpentanoic acid] | 8
CC(C)CC(C(=O)O)c1cc(-c2ccc(C(F)(F)F)cc2)cc(C2CCCC(C)N2)c1 (stereo not drawn) [Example 6, 4-Methyl-2-[5-(6-methyl-piperidin-2-yl)-4′-trifluoromethyl-biphenyl-3-yl]-pentanoic acid] | 0
COc1ccc(CN2C(c3cc(-c4ccc(C(F)(F)F)cc4)cc(C(CC(C)C)C(=O)O)c3)CCCC2C(F)(F)F)cc1 (stereo not drawn) [Example 7, 2-{5-[1-(4-Methoxy-benzyl)-6-trifluoromethyl-piperidin-2-yl]-4′-trifluoromethyl-biphenyl-3-yl}-4-methyl-pentanoic acid] | 70
CC(C)CCN1CCCCC1c1cc(-c2ccc(C(F)(F)F)cc2)cc(C(CC(C)C)C(=O)O)c1 (stereo not drawn) [Example 10, 4-Methyl-2-{5-[1-(3-methyl-butyl)-piperidin-2-yl]-4′-trifluoromethyl-biphenyl-3-yl}-pentanoic acid] | 34
CN1C(c2cc(CC(=O)O)cc(-c3ccc(C(F)(F)F)cc3)c2)CCCC1C(F)(F)F (stereo not drawn) [Example 11, [5-(1-Methyl-6-trifluoromethyl-piperidin-2-yl)-4′-trifluoromethyl-biphenyl-3-yl]-acetic acid] | 23
CC(C)CC(C(=O)O)c1cc(-c2ccc(C(F)(F)F)cc2)cc(C2CCC(C(F)(F)F)CN2C)c1 (stereo not drawn) [Example 13, 4-Methyl-2-[5-(1-methyl-5-trifluoromethyl-piperidin-2-yl)-4′-trifluoromethyl-biphenyl-3-yl]-pentanoic acid] | 30
CC(C)CCN1C(c2cc(-c3ccc(C(F)(F)F)cc3)cc(C(F)(CC(C)C)C(=O)O)c2)CCCC1C(F)(F)F (stereo not drawn) [Example 16, 2-Fluoro-4-methyl-2-{5-[1-(3-methyl-butyl)-6-trifluoromethyl-piperidin-2-yl]-4′-trifluoromethyl-biphenyl-3-yl}-pentanoic acid] | 0
CC(C)C[C@H](C(=O)O)c1cc(-c2ccc(C(F)(F)F)cc2)cc([C@H]2CCC[C@@H](C(F)(F)F)N2)c1 [Example 19, (S) 4-Methyl-2-[4′-trifluoromethyl-5-(6-trifluoromethyl-piperidin-2-yl)-biphenyl-3-yl]-pentanoic acid] | 48
CC(C)CCN1C(c2cc(-c3ccc(C(F)(F)F)cc3)cc(C(F)(F)C(=O)O)c2)CCCC1C(F)(F)F (stereo not drawn) [Example 22, Difluoro-{5-[1-(3-methyl-butyl)-6-trifluoromethyl-piperidin-2-yl]-4′-trifluoromethyl-biphenyl-3-yl}-acetic acid] | 35
CC(C)CC(C(=O)O)c1cc(-c2ccc(C(F)(F)F)cc2)cc(C2CCC(C(F)(F)F)CN2)c1 (stereo not drawn) [Example 23, 4-Methyl-2-[4′-trifluoromethyl-5-(5-trifluoromethyl-piperidin-2-yl)-biphenyl-3-yl]-pentanoic acid] | 30
